Experiments:
[1] = target: T1, Ras farnesyl transferase (Homo sapiens, UniProt P49354+P49356); assay: In vitro inhibitory activity for Ras farnesyl transferase, H-Ras substrate; type: biochemical
T1 construct: made in house
Method: In the present experiment, Ras farnesyl transferase produced by genetic recombination techniques according to the improved Pompliano's method (Pompliano et al., Biochemistry, 1992, 31, 3800) was used, and Ras substrate (Ras-CVLS) protein described in Korean Patent Appln. No. 97-14409 was used after it has been purified according to the known method (see, Chung et al., Biochimica et Biophysica Acta, 1992, 278, 1129).
The enzyme reaction was performed in 50 μl of 50 mM Sodium HEPES buffer solution containing 25 mM of potassium chloride, 25 mM of magnesium chloride, 10 mM of DTT and 50 μM of zinc chloride. 1.5 μM of Ras substrate protein, 0.15 μM of tritium-farnesylpyrophosphate and 4.5 nM of farnesyl transferase were used.
More specifically, in the initial step, farnesyl transferase was added to the above buffer solution, reaction was maintained for 30 minutes at 37° C. and then the reaction was stopped by adding 1 ml of ethanol solution containing 1M HCl. The formed precipitates were adsorbed to GF/B filter using Hopper harvestor(Hopper #FH 225V) for filter-binding, washed with ethanol, and then radioactivity of the dried filter was measured using LKB β counter. Enzyme titer was measured in the unsaturated state of substrate where the concentrations of Ras substrate protein and farnesyl transferase have quantitative relationship. The compound according to the present invention dissolved in dimethyl sulfoxide (DMSO) was added to the reaction solution in an amount of less than 5% of the total reaction solution, and then the enzyme inhibitory activity thereof was measured. The enzyme inhibitory activity was represented by percentage of the amount of farnesyl incorporated into the Ras substrate protein in the presence of the test compound to that in the absence of the test compound. IC50 of the test compound was defined as the concentration at which 50% of the enzyme activity was inhibited.

[2] = target: T1, Ras farnesyl transferase; assay: In vitro inhibitory activity for Ras farnesyl transferase, K-Ras substrate; type: biochemical
[3] = target: T2, Ras farnesyl transferase (Rattus norvegicus, UniProt Q02293+Q04631); assay: In vivo (cellular) inhibitory activity for Ras farnesyl transferase, Rat2 cell line which expresses C-Harvey-Ras protein; type: cell-based
T2 construct: endogenous in cells; host or cells: Rat2 fibroblasts transformed with H-Ras or with an H-Ras/K-Ras C-terminus fusion
Method: (§1) In the present experiment, Rat2 cell line which expresses C-Harvey-Ras protein having transforming activity and Rat2 cell line (Korean patent application No. 97-14409) which is transformed with fused protein of H-Ras substituted with polybasic lysine domain at C-terminus of K-Ras were used. The experiment was performed by the modified Declue's method (Declue. J. E. et al., Cancer Research, 1991, 51, 712). Hereinafter, the experimental method will be described in more detail.
(§2) 3×10^5 cells of transformed Rat2 fibroblast cell line were sprayed on 60 mm cell cultivation dish and cultivated for 48 hours in a cell incubator at 37° C. and after 50% or more of density was reached, it was treated with the test compounds. The compound according to the present invention dissolved in dimethylsulfoxide (DMSO) was used. 1% concentration of dimethylsulfoxide was used in both control and test groups. After 4 hours from the treatment with the compound, methionine labeled with 150 μCi of radioactive isotope [^35S] per 1 ml of medium was added and after cultivating for 20 hours, the cells were, washed with physiological saline water. The cells were lysed using 1 ml of cold cell lysis buffer solution (50 mM of Sodium HEPES buffer solution containing 5mM of magnesium chloride, 1 mM of DTT, 1% NP 40, 1 mM of EDTA, 1 mM of PMSF, 2 μM of leupeptin, 2 μM of pepstatin A and 2 μM of antipain) and the supernatant wherein the cells were lysed was obtained by high-velocity centrifugation of 12,000 g×5 minutes. The amount of radioisotope in the supernatant was measured and standardized to obtain a quantitative result in immunoprecipitation reaction and then, Y13-259, a monoclonal antibody specifically binding to Ras protein (Furth, M. E. et al., J. Virol, 1982, 43, 294) was added and reacted for 15 hours at 4° C. Protein A(combined with goat anti-murine immunoglobulin antibody)-agarose suspension was added to the solution and reacted for 1 hour at 4° C. and then, to remove the unspecific binding product, immunoprecipitates were washed with a buffer solution (50 mM Tris chloride buffer solution containing 50 mM of sodium chloride, 0.5% of sodium dioxycolate, 0.5% of NP 40 and 0.1% of SDS). The precipitates were added to a buffer solution for electrophoresis and boiled and then, electrophoresis was performed using 13.5% of SDS polyacrylamide gel. After electrophoresis, the gel was fixed and dried. Then, the gel was exposed to X-ray film, developed printed. From the result of the experiment, intensities of band of in combined with or without farnesyl of Ras protein were measured, the concentration of the test compound inhibiting 50% of farnesyl bonding was defined as […], an in vivo Ras farnesyl transferase inhibitory activity.

[4] = target: T2, Ras farnesyl transferase; assay: In vivo (cellular) inhibitory activity for Ras farnesyl transferase, Rat2 cell line transformed with fused protein of H-Ras substituted with polybasic lysine domain at C-terminus of K-Ras; type: cell-based
Method: as §1, §2

[5] = recombinant farnesyl transferase 4.5 nM, Ras substrate protein 1.5 μM, tritium-farnesylpyrophosphate 0.15 μM, 30 minutes at 37° C., read-out: H-Ras IC50
[6] = in vitro farnesyl transferase assay, K-Ras, read-out: K-Ras IC50
[7] = Rat2 cell line expressing C-Harvey-Ras, concentration inhibiting 50% of farnesyl bonding of Ras protein, read-out: H-Ras CIC50
[8] = Rat2 cell line transformed with H-Ras fused with polybasic lysine domain of K-Ras C-terminus, concentration inhibiting 50% of farnesyl bonding, read-out: K-Ras CIC50

SMILES | IC50 [1, 5] [nM] | IC50 [2, 6] [nM] | IC50 [3, 7] [nM] | IC50 [4, 8] [nM] | IC50 [1] [nM] | IC50 [2] [nM] | IC50 [3] [nM] | IC50 [4] [nM]
O=C(c1ccc(F)cc1F)c1cn(Cc2c[nH]cn2)cc1-c1cccc2ccccc12 [Compound 59] | 570 | 100 to 10000 | 1000 to 50000 | 10000 to 100000 | – | – | – | –
CN1CCN(C(=O)c2cn(Cc3cncn3Cc3ccc(C#N)cc3)cc2-c2cccc3ccccc23)CC1 [Compound 105] | 0.4 | 90 | 50 | > 50000 | – | – | – | –
N#Cc1ccc(C(=O)c2cn(Cc3c[nH]cn3)cc2-c2cccc3ccccc23)cc1 [Compound 60] | 200 | 100 to 10000 | 1000 to 50000 | 10000 to 100000 | – | – | – | –
CN1CCN(C(=O)c2cn(Cc3cncn3CCc3ccc4ccccc4c3)cc2-c2cccc3ccccc23)CC1 [Compound 42, 3-[4-Methylpiperazin-1-yl]carbonyl-4-(naphthalen-1-yl)-1-{1-[2-(naphthalen-2-yl)ethyl]-1H-imidazol-5-yl}methyl-1H-pyrrole] | 4 | 3 | 15 | 10000 to 50000 | – | – | – | –
O=C(c1cn(Cc2c[nH]cn2)cc1-c1cccc2ccccc12)N1CCSC1 [Compound 90] | 42.5 | 100 to 10000 | 1000 to 50000 | 10000 to 100000 | – | – | – | –
COCCN(C)C(=O)c1cn(Cc2cncn2Cc2ccc(C#N)cc2)nc1-c1cccc2ccccc12 [Compound 156, 1-[1-(4-Cyanobenzyl)-1H-imidazol-5-ylmethyl]-4-[N-(2-methoxyethyl)-N-methyl]-carbamoyl-3-(naphthalen-1-yl)-1H-pyrazole] | 20 | 200 | 100 | 40000 | – | – | – | –
CN1CCN(C(=O)c2cn(Cc3cncn3CCc3ccccc3Cl)cc2-c2cccc3ccccc23)CC1 [Compound 24, 1-[1-(2-Chloro)phenethyl-1H-imidazol-5-yl]methyl-3-[4-methylpiperazin-1-yl]carbonyl-4-(naphthalen-1-yl)-1H-pyrrole] | 2 | 3 | 25 | 10000 to 50000 | – | – | – | –
COCCN(C)C(=O)c1cn(Cc2cncn2Cc2ccccc2Cl)cc1-c1cccc2ccccc12 [Compound 134, 1-[1-(2-Chlorobenzyl)-1H-imidazol-5-yl]methyl-3-[N-(2-methoxyethyl)-N-methyl]carbamoyl-4-(naphthalen-1-yl)-1H-pyrrole] | 2.7 | 2 | 25 | 10000 to 50000 | – | – | – | –
CN1CCN(C(=O)c2cn(Cc3cncn3CCc3ccc(F)cc3)cc2-c2cccc3ccccc23)CC1 [Compound 36, 1-[1-(4-Fluoro)phenethyl-1H-imidazol-5-yl]methyl-3-[4-methylpiperazin-1-yl]carbonyl-4-(naphthalen-1-yl)-1H-pyrrole] | 1 | 2 | 25 | 10000 to 50000 | – | – | – | –
O=C(c1cccc(-c2ccccc2)c1)c1cn(Cc2c[nH]cn2)cc1-c1cccc2ccccc12 [Compound 65] | 420 | 100 to 10000 | 1000 to 50000 | 10000 to 100000 | – | – | – | –
O=C1CCN(C(=O)c2cn(Cc3c[nH]cn3)cc2-c2cccc3ccccc23)CC1 [Compound 92] | – | – | – | – | 70 | 100 to 10000 | 1000 to 50000 | 10000 to 100000
Cc1ccccc1C(=O)c1cn(Cc2c[nH]cn2)cc1-c1cccc2ccccc12 [Compound 50] | 150 | 100 to 10000 | 1000 to 50000 | 10000 to 100000 | – | – | – | –
CN1CCN(C(=O)c2cn(Cc3cncn3CCc3ccc(O)cc3)cc2-c2cccc3ccccc23)CC1 [Compound 43, 1-[1-(4-Hydroxy)phenethyl-1H-imidazol-5-yl]methyl-3-[4-mmethylpiperazin-1-yl]carbonyl-4-(naphthalen-1-yl)-1H-pyrrole] | 1 | 2 | 15 | 5000 to 10000 | – | – | – | –
COCCN(C)C(=O)c1cn(Cc2cncn2[C@@H](C)c2ccccc2)cc1-c1cccc2ccccc12 [Compound 11] | 4 | 8 | 25 | 10000 to 50000 | – | – | – | –
CSCC[C@H](NC(=O)c1cn(CCCc2c[nH]cn2)cc1-c1cccc2ccccc12)C(=O)O [Compound 108] | 260 | 100 to 10000 | 1000 to 50000 | 10000 to 100000 | – | – | – | –
O=C(c1ccc(Cl)cc1Cl)c1cn(Cc2c[nH]cn2)cc1-c1cccc2ccccc12 [Compound 57] | 38 | 100 to 10000 | 1000 to 50000 | 10000 to 100000 | – | – | – | –
COCCN(C)C(=O)c1cn(Cc2cncn2Cc2cccc(Cl)c2)cc1-c1cccc2ccccc12 [Compound 132, 1-[1-(3-Chlorobenzyl)-1H-imidazol-5-yl]methyl-3-[N-(2-methoxyethyl)-N-methyl]carbamoyl-4-(naphthalen-1-yl)-1H-pyrrole] | 3.5 | 11 | 25 | 10000 to 50000 | – | – | – | –
Cn1cncc1Cn1cc(C(=O)N2CCOCC2)c(-c2cccc3ccccc23)c1 [Compound 99, 1-(1-Methyl-1H-imidazol-5-yl)methyl-3-(morpholin-4-yl)carbonyl(naphthalen-1-yl)-1H-pyrrole] | – | – | 100 | > 50000 | – | – | – | –
COCCN(C)C(=O)c1cn(Cc2cncn2CC2CCN(C(=O)OCc3ccccc3)CC2)nc1-c1cccc2ccccc12 [Compound 152, 1-[1-(1-Benzyloxycarbonyl-piperidin-4-ylmethyl)-1H-imidazol-5-ylmethyl]-4-[N-(2-methoxyethyl)-N-methyl]carbamoyl-3-(naphthalen-1-yl)-1H-pyrazole] | 23 | 70 | 100 | – | – | – | – | –
COCCN(C)C(=O)c1cn(Cc2cncn2Cc2ccc3c(c2)OCO3)cc1-c1cccc2ccccc12 [Compound 1, 3-[N-(2-Methoxyethyl)-N-methyl]carbamoyl-1-[1-(3,4-methylenedioxybenzyl)-1H-imidazol-5-ylmethyl]-4-(naphthalen-1-yl)-1H-pyrrole] | 1.1 | 3.5 | 25 | – | – | – | – | –
COCCN(C)C(=O)c1nc(Cc2cncn2Cc2ccc(Cl)cc2)sc1-c1cccc2ccccc12 [Compound 147, 2-[1-(4-Chlorobenzyl)-1H-imidazol-5-ylmethyl]-4-[N-(2-methoxy)ethyl-N-methylcarbamoyl]-5-(naphthalen-1-yl)thiazole] | 2 | 30 | 50 | – | – | – | – | –
N#Cc1ccc(Cn2cncc2Cn2cc(C(=O)c3ccccc3)c(-c3cccc4ccccc34)c2)cc1 [Compound 75] | 5 | 160 | 200 | – | – | – | – | –

— patent US6472526B1, “Imidazole derivatives having an inhibitory activity for farnesyl transferase and process for preparation thereof” (LG Chemical Ltd., priority 1997, dated 2002)
